Columns and labels:
[1] = tested on: Human peripheral blood lymphocytes (PBLs); assay: Inhibition of T lymphocyte proliferation (PHA stimulation, tritiated thymidine); type: cell-based; details: PHA stimulated lymphocytes
Method: Human peripheral blood lymphocytes (PBLs) were isolated from whole blood of healthy volunteers by Ficoll-Isopaque density gradient centrifugation. After washing, monocytes were separated from lymphocytes by percoll density gradient centrifugation. The lymphocytes were cultured in IMDM (Gibco, Verviers, Belgium) supplemented with 10% heat inactivated fetal calf serum.
Cells were seeded in 96 well plates and stimulated with PHA (10 μg/ml) and corresponding concentration of pharmaceuticals. After 24 hours tritiated thymidine was added to each well and left overnight. Next morning proliferation was measured by microbeta counter. Graphs were plotted with the untreated condition set to a hundred percent.

[2] = tested on: kinase Zap70; assay: Western blot of T cell receptor related signaling, phospho-Zap70; type: cell-based, human; details: pretreated 10 minutes, stimulated 10 minutes with PHA; FIG. 2A
Method: (§1) Lymphocytes were seeded in a 6 well plate (1.0·10^7/well), pretreated for 10 minutes with S3.1, S3.4 or dexamethasone and stimulated for 10 minutes with PHA. The experiment was stopped by adding a large volume of ice cold PBS to the cells. The suspension was transferred to a tube, briefly spinned down in a centrifuge and the supernatant removed. The pellet was lysed by adding cold lysisbuffer (0.1% NP40, 50 mM TrisHCl, 1 mM EDTA, 1 mM EGTA, 150 mM NaCl, 200 μM Na3VO4, 10 mM NaF and protease inhibitors) and incubating 20 minutes on ice.
(§2) To investigate the cell signaling events that are affected by treatment with S3.1 and S3.4, lysates were supplemented with sample buffer (188 mM Tris-Cl (pH 6.8), 3% SDS, 30% glycerol, 0.01% bromophenol blue, 15% β-mercaptoethanol), heated to 95° C. for 5 minutes, cooled on ice and sonicated. Samples were then run on 10% SDS-PAGE gel, blotted to PVDF membrane and incubated with antibodies for phospho-Zap70 (Cell Signaling Technology (Beverly, Mass.)) and phospho-LAT (Cell Signaling Technology (Beverly, Mass.)). To show equal loading of the samples the blot was incubated with an antibody directed against beta-actin (Santa Cruz Biotechnology (Heidelberg, Germany)).

[3] = tested on: scaffolding protein LAT; assay: Western blot of T cell receptor related signaling, phospho-LAT; type: cell-based, human; details: pretreated 10 minutes, stimulated 10 minutes with PHA; FIG. 2A
Method: as §1, §2

c1ccc(CN2CCCC(c3ccnc(SCCN4CCCC4)n3)C2)cc1 (stereo not drawn) [Compound S3.4]
effect on T lymphocyte proliferation [1]: antiproliferative effect
Zap70 phosphorylation level compared to a stimulated untreated control [2]: lower phosphorylation levels
LAT phosphorylation level compared to a stimulated untreated control [3]: lower phosphorylation levels
